Reference: ChEMBL document CHEMBL3046049, “Protoporphyrinogen-IX Oxidase Inhibition by N-(2, 4, 5-Trisubstituted phenyl)-3, 4, 5, 6-tetrahydrophthalimides” (J Pestic Sci, 1997)

Columns and labels:
[1] = biological target: T1, Protoporphyrinogen IX oxidase (Zea mays, UniProt Q9FYV8); test: Inhibition of protoporphyrinogen IX oxidase in Zea mays (maize) seed after 5 min by Dixon plot analysis; conditions: read-out: pI50 (converted)
T1 sequence (Q9FYV8 whole entry): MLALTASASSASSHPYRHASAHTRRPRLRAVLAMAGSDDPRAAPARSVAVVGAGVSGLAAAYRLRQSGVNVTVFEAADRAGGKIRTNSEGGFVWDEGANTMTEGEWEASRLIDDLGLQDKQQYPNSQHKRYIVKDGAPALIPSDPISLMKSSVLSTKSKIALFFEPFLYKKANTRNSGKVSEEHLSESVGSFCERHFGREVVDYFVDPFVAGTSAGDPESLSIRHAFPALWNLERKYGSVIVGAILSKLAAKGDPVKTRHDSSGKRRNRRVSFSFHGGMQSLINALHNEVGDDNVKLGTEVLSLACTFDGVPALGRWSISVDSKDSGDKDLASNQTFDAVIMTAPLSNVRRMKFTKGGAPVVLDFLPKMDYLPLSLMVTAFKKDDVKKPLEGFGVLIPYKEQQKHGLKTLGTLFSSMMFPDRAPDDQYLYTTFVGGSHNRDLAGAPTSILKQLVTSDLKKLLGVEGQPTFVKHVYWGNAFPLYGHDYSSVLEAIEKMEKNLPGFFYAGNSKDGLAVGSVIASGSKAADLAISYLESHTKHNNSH

Scenedesmus acutus = test: Inhibition of light-induced ethane formation in Scenedesmus acutus after 20 hr; type: functional, organism-based; conditions: read-out: pI50 (converted)

| SMILES | IC50 [1] | IC50 (Scenedesmus acutus) |
| --- | --- | --- |
| C#CC(C)Oc1cc(N2C(=O)C3=C(CCCC3)C2=O)c(F)cc1Cl (configuration not stated) [FLUMIPROPYN] | 1 nM | 105 nM |
| CCCCCOC(=O)COc1cc(N2C(=O)C3=C(CCCC3)C2=O)c(F)cc1Cl [FLUMICIORAC-PENTYL] | 1.1 nM | – |
| CC(C)=C1OC(=O)N(c2cc(OC3CCCC3)c(Cl)cc2F)C1=O [PENTOXAZONE] | 5.25 nM | 631 nM |
| C#CCOc1cc(N2C(=O)C3=C(CCCC3)C2=O)c(F)cc1Cl | 2 nM | 126 nM |
| CC(C)OC(=O)c1cc(N2C(=O)C3=C(CCCC3)C2=O)c(F)cc1Cl | 1.26 nM | 79.4 nM |
| C#CCN1C(=O)COc2cc(F)c(N3C(=O)C4=C(CCCC4)C3=O)cc21 [FLUMIOXAZIN] | – | 316 nM |
| COC(=O)CSc1cc(/N=c2\sc(=O)n3n2CCCC3)c(F)cc1Cl [FLUTHIACETMETHYL] | 47.9 nM | 955 nM |
| O=C1C2=C(CCCC2)C(=O)N1c1ccc(Cl)cc1 [CHLOROPHTHALIUM] | 25.1 nM | 1000 nM |
| C#CCOc1cc(-n2nc3c(c2Cl)CCCC3)c(F)cc1Cl | 1 nM | – |

Results, then the compound that gave them:

| IC50 [1] | IC50 (Scenedesmus acutus) | SMILES |
| --- | --- | --- |
| 1 nM | 200 nM | CC(C)OC(=O)c1cc(N2C(=O)C3=C(CCCC3)C2=O)ccc1Cl |
| 3.98 nM | 251 nM | O=C1C2=C(CCCC2)C(=O)N1c1ccc(Cl)cc1F |
| 1580 nM | 10000 nM | O=C1C2=C(CCCC2)C(=O)N1c1ccccc1 |
| 0.398 nM | 501 nM | C#CCOc1cc(N2C(=O)C3=C(CCCC3)C2=O)ccc1Cl |
| 1 nM | 631 nM | C#CCN1C(=O)COc2ccc(N3C(=O)C4=C(CCCC4)C3=O)cc21 |
| 2510 nM | 10000 nM | O=C1C2=C(CCCC2)C(=O)N1c1ccccc1F |
